In PMC10951066, “The self-reactive FVIII T cell repertoire in healthy individuals relies on a short set of epitopes and public clonotypes” (Frontiers in Immunology, 2024):

Tests used:
[1] = target: HLA-DRB1*1501 (Homo sapiens, UniProt P01903+P01911); experiment: Peptide-MHCII competition binding assay; conditions: competition ELISA, pH 5.9, peptide 90.000nM – 0.9nM, HLA-DRB1 30 nM, biotinylated peptide 15nM, duplicate wells; ratios below 10 = good binding; reference peptide ENPVVHFFKNIVTPR
Procedure: (§1) Quantitative peptide-MHCII competition binding assays were carried out to determine binding avidities of the 18 20-mer FVIII peptides to 6 HLA-DRB1. Data are presented as ratio between reference peptide IC50/FVIII-peptide IC50 tested. Briefly, non-biotinylated FVIII peptides have been diluted at a concentration of 20 mM in DMSO. 10-µl aliquots of serially diluted (90.000nM – 0.9nM in n-Octyl b-D-Glucopyranoside, 2.5 mg/ml in 1x phosphate buffer, pH 5.9) of non-biotinylated FVIII peptides, were added to duplicate wells of 96-well polypropylene plates. Serially diluted non-FVIII reference peptides known to bind to the specific HLA-DRB1 were added to separate wells as positive controls. Next, the biotinylated peptide at a concentration of 2mM was use to prepare 1000-fold pre-dilution to reach a final concentration of 15nM. The HLA-DRB1 proteins were diluted to 30 nM in n-Octyl β-D-Glucopyranoside, 2.5 mg/ml in 1x phosphate buffer, pH 5.9. […] SA-HRP (diluted 5000x in 1xPBS 0.1% Tween20) was added to each well. The plates were covered and incubated at room temperature for 60 min […] and washed. TMB (100 μl/well) was then added, and the plates were incubated at room temperature for 15-30 min. ELISA stopping solution (0.5M H2SO4) was added and then read on a FLUOstar OPTIMA fluorometer. Sigmoidal binding curves were simulated and IC50 values calculated for the FVIII peptides, based on their competition with the reference peptides for each HLA-DRB1. Data were reported as the ratio between the values of the tested peptide and of the reference peptide. Ratios below 10 correspond to good biding affinity.

[2] = target: HLA-DRB1*0701 (Homo sapiens, UniProt P01903+P01911, A100R/A102G/A103Q/D57E/D86V/E43K/F76Y/K127E/L162R/M171V/P40G/Q125H/Q99D/R33Q/R42Y/R54Q/S133A/S66F/T210M/V115G/Y107V/Y59L/Y89S); experiment: Peptide-MHCII competition binding assay; conditions: competition ELISA, pH 5.9, peptide 90.000nM – 0.9nM, HLA-DRB1 30 nM, biotinylated peptide 15nM, duplicate wells; ratios below 10 = good binding; reference peptide PVDLHAFLSQAVFS
Procedure: as §1

[3] = tested on: CD4 T cells from healthy donors; experiment: HLA restriction and FVIII specificity IFN-γ ELISPOT of T cell lines raised with the pool of 18 peptides (four donors); assay type: cell-based, human; parameters: key to Protein specificty: +: positive T cell responses to both the full-length FVIII protein (protein specificity); conditions: for intensity (%): four donors, 87 specific T cell lines in total; for Responding donors (%): four healthy donors, T cell lines amplified with pool of 18 FVIII peptides; for HLA restriction (%) DR: percentage of restricted T cell lines, anti-HLA-DR (L243) 10 μg/ml, inhibition higher than 50% of ELISPOT count; for Protein specificty: recognition of rFVIII loaded on autologous DCs by peptide-specific T cell lines
Procedure: T cells were incubated with autologous DCs alone (control) or with DCs incubated with rFVIII (0.2 µM), ovalbumin (3 µM), and KLH (1 µM) or PBMCs for FVIII peptides (10 µg/ml) in MultiScreen 96-well plates (Merck Millipore) previously coated with 2.5 µg/mL of anti-human IFN-γ monoclonal antibody (mAb; 1-D1K; Mabtech). The T cell lines and APCs were plated at equal number for both stimulated and unstimulated control conditions. […] The spot number was determined by using the ELISPOT Reader System (Autoimmun Diagnostika, Ebinger, Germany). HLA restriction was assessed using monoclonal antibodies (10 μg/ml) specific to HLA-DP (B7/21), HLA-DQ (SPVL3), or HLA-DR (L243).
Based on the T cell epitope prediction software NetMHCpan4.0 ([23]), we selected 63 20-mer peptides that are predicted for their ability to bind promiscuously, with a percentile score below 10%, at least four HLA class II molecules from a selection of 15 preponderant HLA-DR alleles in our panel (as shown in ST1). The predicted peptides spread all along the full-length FVIII sequence and account for more than 50% of its amino acid coverage. A total of 16 healthy donors with unrelated HLA typing (ST2) were used as sources of T cells to identify FVIII-specific CD4 T cell epitopes. Specific T cell lines were generated by in vitro T cell culture using FVIII and KLH. The peptide specificity of the T cell lines raised against FVIII was assessed by two independent IFN-γ ELISPOT using peptide pools and individual peptides. All donors responded to rFVIII with a total of 409 identified rFVIII-specific T cell lines (Figure 4A). The mean of CD4 T cell precursors was 6.5 cells/M (Figure 4B). Each of the 63 FVIII peptides induced a T cell response in at least one of the donors tested, among the 16 healthy donors tested, with 872 peptide-specific T cell lines identified (Figure 4C). The CD4 T cell epitopes identified were ranked based on their donor coverage capacity (Figure 4D) and response intensity (Figure 4E). Furthermore, 18 out of 63 FVIII T cell epitopes were responsible for 50% of the total T cell response and 100% of the donor coverage. These immunoprevalent epitopes are located in the A1, A3, C1, and C2 domains of the FVIII protein (ST3). Furthermore, four independent healthy donors were used as sources of T cells to characterize the HLA restriction and to assess the reactivity of T cell lines generated with the 18 peptides toward rFVIII. T cell lines were amplified in vitro for 28 days through stimulation with the pool of 18 peptides and then tested through IFN-γ ELISPOT. All four healthy donors tested responded to the pool of 18 FVIII peptides selected, with a total of 87 specific T cell lines identified. Moreover, 16 out of 18 FVIII peptides in the pool generated a specific T cell response among the four donors. A total of 14 of the T cell peptides were tested for recognition of rFVIII-loaded on autologous DCs, and it was confirmed that they were part of the naturally processed FVIII peptides. HLA restriction was assessed by introducing anti-HLA-DR, anti-HLA-DP, and anti-HLA-DQ antibodies. None of the peptides tested was HLA-DQ restricted. Eight peptides were exclusively HLA-DR-restricted, one peptide was HLA-DP, and seven were promiscuously presented on both HLA-DR and HLA-DP molecules (ST4). […] Furthermore, the 18 FVIII peptides selected were ulteriorly tested in an in vitro binding assay to six HLA-DRB1 molecules (as described in ST5).
Four healthy donors were used as the source of CD4 T cells, which were amplified in vitro with the pool of 18 FVIII peptides selected for study. In an initial IFN-γ ELISPOT assay, we screened each of the 18 peptides individually to identify any positive T cell responses to both the full-length FVIII protein (protein specificity) as well as the specific peptide inducing the response. […]

## VHSIFLEGHTFLVRNHRQAS [P285-304, 20-mer FVIII peptide, A1 domain]
[1]
  Ratio IC50 DRB1*1501: 11
[2]
  Ratio IC50 DRB1*0701: 2
[3]
  intensity (%): 3,4%
  Responding donors (%): 50%
  HLA restriction (%) DR: 100%
  Protein specificty: +

## YDTVVITLKNMASHPVSLHA [P100-119, 20-mer FVIII peptide, A1 domain]
[1]
  Ratio IC50 DRB1*1501: 0.5
[2]
  Ratio IC50 DRB1*0701: 3
[3]
  intensity (%): 8%
  Responding donors (%): 50%
  HLA restriction (%) DR: 100%
  Protein specificty: +
